Results: patent US11684623B2, “Soluble melatonin tripartate adduct for the prevention and treatment of rare and severe eye sight-threatening conditions and neuro-ophthalmic disorders” (WORPHMED SRL, priority 2020, dated 2023)

Assay: Solubility in water according to USP and EP
Assay type: physicochemical
Description: wherein melatonin is complexed with adenosine and glycine. Adenosine is a purine nucleoside consisting of adenine attached to a ribofuranose moiety via a β-N9-glycosidic bond and the low-chain amino acid glycine is a C2 amino acid having a single hydrogen atom as its side chain.

Solubility in water, Results: 0.1 mg/1.0 ml
Compound: COc1ccc2[nH]cc(CCNC(C)=O)c2c1 [melatonin, N-acetyl-5-methoxytryptamine]
